2 compounds from US7465814B2, “Sulfonate compound and fluorescent probe using the same” (priority 2003, dated 2008) can be followed below.

Assay [1] is described as follows: Responses to the compounds listed in Table 1. The class given is biochemical. The note with it: same conditions as Example 1. As for the experimental part: (§1) Moreover, in other conditions than those of the above-described tests, reactivity of all of the compounds 1a to 1d with H2O2, other various kinds of nucleophilic agents, reducing agents and the like also was tested, respectively. More specifically, fluorescent responses of 1a to 1d with respect to a XO-HPX system, a XO-HPX-SOD system, H2O2, ascorbic acid, 1,4-hydroquinone, propylamine, diethylamine, glucose, esterase, a cytochrome P450 reductase+NADPH system, and a diaphorase+NADH system were measured, respectively. Operational processes thereof will be described below. Firstly, 1a to 1d and the above-described reagents were dissolved in HEPES of 10 mM having a pH of 7.4 so as to prepare solutions, respectively. Next, a 96 wellmicroplate was provided, where any of the solutions of 1a to 1d (25 μM, 170 μL) was poured into each of the wells, and furthermore, 30 μL of a blank solution or 30 μL of the solution of the reagent to be reacted therewith was added thereto. Final concentrations of the solutions in the wells were adjusted so that concentrations of the solutions of 1a to 1d respectively could be 21.3 μM, that of XO could be 13.1 mU/mL, those of HPX, H2O2, ascorbic acid, 1,4-hydroquinone, propylamine, diethylamine, glucose, NADPH and NADH respectively could be 50 μM, that of cytochrome P450 reductase could be 68 mU/mL, that of diaphorase could be 65 mU/mL, and that of esterase could be 0.5 U/mL, respectively. Then, after they reacted in the wells at 37° C. for 10 minutes, fluorescent responses were measured respectively. Fluorescence intensity measurement was conducted by using an ETC-272 Peltier thermostatted single cell holder (trade name) manufactured by JASCO Corporation or a SpectraMax GeminiEM fluorescence plate reader (trade name) manufactured by Molecular Devices Corporation provided with a FP-750 spectrofluorometer (trade name) manufactured by JASCO Corporation, and by setting excitation wavelengths and emission wavelengths so that those of 1a, 1b and 1c respectively could be 485 nm and 515 nm, and those of 1d respectively could be 511 nm and 540 nm.
(§2) The reactivity of each of the compounds 1d, 5a, 6a, 7 and 8a with respect to superoxide and glutathione (GSH) that is a kind of thiol was tested under the same conditions as those of [1-3. Superoxide-selectivity (2)] in Example 1. […] A vertical axis thereof denotes a fluorescence intensity, which is represented in % of control.

Assay [2] can be described thus: Capability as superoxide-detecting fluorescent probe (reactivity with superoxide). The assay is classed as biochemical. The note with it: tested similarly to the compound 1d. As for the experimental part:
Then, by mainly using the compound 1d as a testing compound, the capability thereof as a superoxide-selective fluorescent probe was evaluated, and moreover, a test in a cell system also was conducted. These tests will be described below.
Thus, it is thought that each compound synthesized from a combination of: a phenolic colorant; and a 2,4-dinitrobenzenesulfonyl group, a 4-trifluoromethyl-2-nitrobenzenesulfonyl group or a 4-nitrobenzenesulfonyl group can be used as a superoxide-detecting fluorescent probe similarly. An example of the usage thereof will be shown in Scheme 8 below. Furthermore, it can be expected that a compound for a fluorescent probe having characteristics that are suitable for its application purpose can be designed and developed freely, by designing the compound of the present invention freely within the limitation defined by the general formula (I) and using the fluorescence mechanism developed by the inventors of the present invention, without being limited to the above-described combinations. Examples of the application purpose of the compound of the present invention are varied, including an application to a faintly coloring technique using superoxide.

Assay [3] is described as follows: Reaction with other nucleophilic agents instead of thiol. The note with it: same conditions as the thiol test. The class given is biochemical. As for the experimental part:
Quantitativity and the like of each of the compounds 6a and 8a with respect to a mercapto compound were evaluated, by using glutathione (GSH) and cysteine that are kinds of thiol. […] Moreover, a probe solution containing 8a was prepared in the same manner as the preparation of the solution of the compound 6a except using 8a instead of 6a, and this probe solution also was allowed to react with a thiol solution in the same manner as the reaction of the probe solution containing 6a. Then, a fluorescence response of each well was measured after the reaction. The measurement of 6a was conducted at λex=383 nm and λem=500 nm, and the measurement of 8a was conducted at λex=483 nm and λem=515 nm. Herein, λex denotes an excitation wavelength, and λem denotes an emission wavelength.

A short description of assay [4]: Fluorescence response to glutathione, quantitativity (FIG. 5). Conditions: for detection limit of GSH: probe 200 μL, HEPES pH 7.4, 37° C., 10 minutes; for inclination of calibration curve, GSH: up to 1000 pmol. The assay is classed as biochemical. As for the experimental part: (§3) Quantitativity and the like of each of the compounds 6a and 8a with respect to a mercapto compound were evaluated, by using glutathione (GSH) and cysteine that are kinds of thiol. More specifically, an EtOH solution of the compound 6a (10 mM) was prepared, and it further was diluted by 500-fold with a HEPES buffer solution having a pH of 7.4, thereby preparing a probe solution containing the compound 6a. Next, 200 μL of this probe solution and 10 μL of each of solutions of glutathione or cysteine (dissolved in a HEPES buffer solution having a pH of 7.4) with various concentrations were added into each well of a 96-wellmicroplate, and were allowed to stand still at 37° C. for 10 minutes so as to undergo a reaction. Moreover, a probe solution containing 8a was prepared in the same manner as the preparation of the solution of the compound 6a except using 8a instead of 6a, and this probe solution also was allowed to react with a thiol solution in the same manner as the reaction of the probe solution containing 6a. Then, a fluorescence response of each well was measured after the reaction. The measurement of 6a was conducted at λex=383 nm and λem=500 nm, and the measurement of 8a was conducted at λex=483 nm and λem=515 nm. Herein, λex denotes an excitation wavelength, and λem denotes an emission wavelength.
(§4) FIG. 5A is a graph showing the measurement result of 6a, and FIG. 5B is a graph showing the measurement result of 8a.

A short description of assay [5]: Fluorescence response to thiophosphonate group (FIG. 8). The class given is biochemical. An excerpt: Moreover, a capability of the sulfonate compound of the present invention as a fluorescent probe for mercapto compounds other than thiol (a compound in which a —SH group is bonded to a carbon atom) was examined. […]
A short description of assay [6]: Fluorescence response to cysteine, quantitativity (FIG. 5). The class given is biochemical. The note with it: for detection limit of cysteine: probe 200 μL, HEPES pH 7.4, 37° C., 10 minutes; for inclination of calibration curve, cysteine: up to 1000 pmol. As for the experimental part: as §3, §4
The nature of assay [7]: Reactivity with superoxide and glutathione (FIG. 4). The class given is biochemical. Conditions: same conditions as 1-3 Superoxide-selectivity (2). As for the experimental part: as §1, §2
Assay [8] relates to acetyl cholinesterase (AChE). The note with it: range from 0.1 μU to 0.5 μU, 37° C., 10 minutes, acetyl thiocholine substrate.
Method: Firstly, an EtOH solution of the compound 8a (10 mM) was prepared, and it further was diluted by 500-fold with a HEPES buffer solution having a pH of 7.4, thereby preparing a probe solution containing the compound 8a (20 μM). Whereas, a solution (1 mM) was prepared by dissolving commercially available acetyl thiocholine in a HEPES buffer solution having a pH of 7.4. Moreover, acetyl cholinesterase (AChE) solutions (solutions obtained by dissolving acetyl cholinesterase in a HEPES buffer solution having a pH of 7.4) with various concentrations (activity levels) were prepared.
Next, 200 μL of the probe solution, 10 μL of the acetyl thiocholine solution and 10 μL of each of the acetyl cholinesterase (AChE) solutions with various concentrations (activity levels) were added into each well of a 96-wellmicroplate, and underwent an enzyme reaction at 37° C. for 10 minutes. Immediately after the reaction, a fluorescence response of each well was measured at λex (excitation wavelength) of 483 nm and λem (emission wavelength) of 515 nm.
Assay [9] concerns thiophosphorylated protein. In words: Fluorescence response to thiophosphorylated protein. The assay is classed as biochemical.

Turning to `O=c1cc(C(F)(F)F)c2ccc(OS(=O)(=O)c3ccc([N+](=O)[O-])cc3[N+](=O)[O-])cc2o1` [Compound 6a], the “response with respect to each of the compounds listed in Table 1” value in assay [1] was “almost no response”. In addition, the “deprotection by superoxide into the corresponding fluorochrome” value in [2] is “deprotected by superoxide”. In assay [3], the “fluorescence with other nucleophilic agent instead of thiol” value is “no fluorescence at all”. For the same compound, in [4], the “detection limit of GSH” value amounted to 7 pmol and the “inclination of calibration curve, GSH” value amounted to 0.37 au/pmol. Besides, in [5] (γ-S-ATP and adenosine monothiophosphate (S-AMP)), the “response to thiol group in thiophosphonate group” value is “responded to a thiol group in a so-called thiophosphonate group”. In [6], the “detection limit of cysteine” value is listed as 7 pmol and the “inclination of calibration curve, cysteine” value was determined as 0.66 au/pmol. Further, the “selectivity (specificity), superoxide versus glutathione, FIG. 4” value in assay [7] is “excellent mercapto compound-selectivity”.

Regarding `O=C(O)c1ccccc1-c1c2ccc(=O)cc-2oc2cc(OS(=O)(=O)c3ccc([N+](=O)[O-])cc3[N+](=O)[O-])ccc12` [Compound 8a], in assay [8], the “inclination, AChE activity versus fluorescence response” value is recorded as 28.8 au/μU. The “fluorescence responses to thiophosphorylated protein with different introduction degrees of the thiophosphonate group” value in assay [9] is recorded as “fluorescence responses corresponding to the respective introduction degrees were obtained”. In addition, in assay [1], the “response with respect to each of the compounds listed in Table 1” value was “almost no response”. Moreover, the “fluorescence with other nucleophilic agent instead of thiol” value in assay [3] was “no fluorescence at all”. For the same compound, in assay [4], the “detection limit of GSH” value came to 2 pmol and the “inclination of calibration curve, GSH” value is listed as 4.25 au/pmol. Moreover, in assay [5] (probe 20 μM 200 μL, imidazole buffer pH 7.4, 37° C., 180 minutes), the “detection limit of γ-S-ATP” value stood at 5 pmol. In assay [6], the “detection limit of cysteine” value was determined as 1 pmol and the “inclination of calibration curve, cysteine” value was determined as 4.82 au/pmol. Also, in assay [7], the “selectivity (specificity), superoxide versus glutathione, FIG. 4” value is recorded as “excellent mercapto compound-selectivity”.
